The results in this text go back to patent publication US20090170914A1, “Cermide Kinase Modulation” (priority 2006, published 2009).

One may read the melting point as the temperature of the solid-liquid transition. In turn, `CCCCCCCCCCCCCC(=O)Nc1ccc2nc(NC(=O)c3ccccc3)sc2c1` yielded a melting point of 160 to 167 °C.
